According to the NIST ThermoML archive (doi:10.1016/j.fluid.2018.08.012):

Experiment: mn = molality of the nth substance listed, in mol/kg
Conditions: Fluid (supercritical or subcritical phases), Vibrating tube method, m1 = 0.2867

O=O [oxygen] + O=C=O
Conditions | mass density [kg/m3]
324.14 K, 2522.5 kPa | 45.49
324.14 K, 2531.8 kPa | 45.7
324.14 K, 4992.7 kPa | 102.94
324.14 K, 4998.9 kPa | 103.15
324.14 K, 7566.1 kPa | 190.74
324.14 K, 7573.3 kPa | 191.05
324.14 K, 10066 kPa | 353.17
324.14 K, 10098 kPa | 356.14
324.14 K, 12475 kPa | 568.33
324.14 K, 12572 kPa | 574.14
324.14 K, 15029 kPa | 672.53
324.14 K, 15098 kPa | 674.53
324.14 K, 17553 kPa | 728.46
324.14 K, 17623 kPa | 729.72
324.14 K, 20076 kPa | 766.9
324.14 K, 20148 kPa | 767.83
324.14 K, 22597 kPa | 796.51
324.14 K, 22667 kPa | 797.24
324.14 K, 25116 kPa | 820.6
324.14 K, 25186 kPa | 821.19
324.14 K, 27631 kPa | 841.02
324.14 K, 27694 kPa | 841.49
324.14 K, 30138 kPa | 858.75
324.14 K, 30191 kPa | 859.1
324.14 K, 32647 kPa | 874.55
324.14 K, 32683 kPa | 874.75
324.14 K, 35167 kPa | 888.83
324.14 K, 35203 kPa | 889.04
349.64 K, 2302.3 kPa | 37.34
349.64 K, 2512.6 kPa | 41.14
349.64 K, 4999.4 kPa | 89.28
349.64 K, 5056.2 kPa | 90.61
349.64 K, 7565.3 kPa | 151.08
349.64 K, 7587.3 kPa | 151.35
349.64 K, 10124 kPa | 230.35
349.64 K, 10132 kPa | 230.46
349.64 K, 12648 kPa | 331.76
349.64 K, 12654 kPa | 331.87
349.64 K, 15179 kPa | 445.16
349.64 K, 15184 kPa | 445.19
349.64 K, 17705 kPa | 539.74
349.64 K, 17709 kPa | 539.82
349.64 K, 20232 kPa | 608.22
349.64 K, 20234 kPa | 608.3
349.64 K, 22753 kPa | 658.24
349.64 K, 22754 kPa | 658.22
349.64 K, 25272 kPa | 696.75
349.64 K, 25273 kPa | 696.87
349.64 K, 27781 kPa | 727.9
349.64 K, 27787 kPa | 728.07
349.64 K, 30280 kPa | 753.96
349.64 K, 30284 kPa | 754.07
349.64 K, 32783 kPa | 776.37
349.64 K, 32788 kPa | 776.48
349.64 K, 35276 kPa | 795.97
349.64 K, 35282 kPa | 796.06
375.03 K, 2543.1 kPa | 38.14
375.03 K, 2546.2 kPa | 38.31
375.03 K, 5059.3 kPa | 80.85
375.03 K, 5060.3 kPa | 80.97
375.03 K, 7540.3 kPa | 129.17
375.03 K, 7545.1 kPa | 129.65
375.03 K, 10091 kPa | 186.78
375.03 K, 10093 kPa | 186.66
375.03 K, 12606 kPa | 251.89
375.03 K, 12615 kPa | 252.03
375.03 K, 15138 kPa | 324.48
375.03 K, 15156 kPa | 324.83
375.03 K, 17663 kPa | 398.41
375.03 K, 17683 kPa | 398.81
375.03 K, 20185 kPa | 466.78
375.03 K, 20209 kPa | 467.22
375.03 K, 22704 kPa | 525.43
375.03 K, 22730 kPa | 525.92
375.03 K, 25225 kPa | 574.34
375.03 K, 25249 kPa | 574.81
375.03 K, 27742 kPa | 614.94
375.03 K, 27764 kPa | 615.3
375.03 K, 30257 kPa | 648.94
375.03 K, 30265 kPa | 649.12
375.03 K, 32764 kPa | 678.12
375.03 K, 32769 kPa | 678.04
375.03 K, 35257 kPa | 703.36
375.03 K, 35260 kPa | 703.21
400.19 K, 2573.8 kPa | 35.12
400.19 K, 2574.8 kPa | 35.31
400.19 K, 5072.3 kPa | 73.3
400.19 K, 5100.4 kPa | 73.64
400.19 K, 7612.6 kPa | 115.55
400.19 K, 7616.5 kPa | 115.71
400.19 K, 10127 kPa | 162.27
400.19 K, 10138 kPa | 162.47
400.19 K, 12592 kPa | 211.79
400.19 K, 12600 kPa | 212.51
400.19 K, 15121 kPa | 265.98
400.19 K, 15134 kPa | 266.82
400.19 K, 17648 kPa | 321.85
400.19 K, 17661 kPa | 322.66
400.19 K, 20173 kPa | 377.08
400.19 K, 20186 kPa | 377.95
400.19 K, 22693 kPa | 429.17
400.19 K, 22707 kPa | 430.08
400.19 K, 25212 kPa | 476.61
400.19 K, 25228 kPa | 477.53
400.19 K, 27728 kPa | 518.93
400.19 K, 27743 kPa | 519.82
400.19 K, 30241 kPa | 556.24
400.19 K, 30253 kPa | 557.1
400.19 K, 32739 kPa | 588.97
400.19 K, 32757 kPa | 589.89
400.19 K, 35235 kPa | 617.97
400.19 K, 35247 kPa | 618.78
